# Activity calls are given as the source filed them. The calls are words filed in the database; no cut-off is given here.
# Tests used:
# [1] = system: Chikungunya virus; experiment: Antiviral activity against CHIKV 122508 infected in human HeLa CCL2 cells assessed as inhibition of viral replication at MOI of 1 at 5 uM incubated for 24 hpi by viral plaque assay; format: functional; settings: time 24 hrs
# [2] = Selectivity index, ratio of CC50 for cytotoxicity against human HeLa CCL2 cells to EC50 for antiviral activity against CHIKV 122508 infected in human HeLa CCL2 cells; format: toxicity, cell-based; settings: read-out: Ratio CC50/EC50
# [3] = Cytotoxicity against human HeLa CCL2 cells assessed as reduction in cell viability measured after 24 hrs by Alamar blue assay; format: functional
# [4] = system: Chikungunya virus; experiment: Antiviral activity against CHIKV 122508 infected in […] BHK-21 cells assessed as reduction in viral titer at MOI of 1 measured after 24 hpi by viral plaque assay; format: functional, organism-based; settings: Chikungunya virus, 122508, BHK-21
# [5] = system: Chikungunya virus; experiment: Antiviral activity against CHIKV 122508 infected in human HeLa CCL2 cells assessed as inhibition of viral replication at MOI of 1 at 40 uM pretreated with compound for 2 hr prior to viral infection by viral plaque assay (reference value: 6.2 %); format: functional
# [6] = system: BHK-21; experiment: Cytotoxicity against hamster BHK-21 cells assessed as reduction in cell viability; format: functional; settings: Mesocricetus auratus
# [7] = system: Chikungunya virus; experiment: Antiviral activity against CHIKV 122508 infected in human HeLa CCL2 cells assessed as inhibition of viral replication at MOI of 1 at 80 uM incubated for 24 hpi by viral plaque assay; format: functional; design: unit not given here; settings: time 24 hrs
# [8] = Selectivity index, ratio of CC50 for Cytotoxicity against hamster BHK-21 cells to EC50 for Antiviral activity against CHIKV 6708 infected in hamster BHK-21 cells; format: toxicity, cell-based; settings: read-out: Ratio CC50/EC50
# [9] = system: Chikungunya virus; experiment: Antiviral activity against CHIKV 6708 infected in hamster BHK-21 cells assessed as reduction in viral titer at 80 uM post treatment; format: functional, organism-based
# [10] = system: Chikungunya virus; experiment: Antiviral activity against CHIKV 122508 mutant infected in hamster BHK-21cells assessed as log reduction in viral titer at 80 uM measured after 14 passage; format: functional, organism-based
# [11] = system: Chikungunya virus; experiment: Antiviral activity against CHIKV 122508 infected in human HeLa CCL2 cells assessed as inhibition of viral replication at MOI of 1 at 80 uM pretreated for 2 hrs followed by viral infection measured after 1.5 hrs by viral plaque assay (reference value: 6.2); format: functional; settings: time 3.5 hrs
# [12] = system: Chikungunya virus; experiment: Antiviral activity against CHIKV 6708 infected in hamster BHK-21 cells assessed as reduction in virus titer in cells; format: functional, organism-based; settings: Chikungunya virus, 6708, BHK-21
# [13] = system: Chikungunya virus; experiment: Antiviral activity against CHIKV 122508 infected in human HeLa CCL2 cells assessed as inhibition of viral replication at MOI of 1 at 20 uM incubated for 24 hpi by viral plaque assay; format: functional; settings: time 24 hrs
# [14] = system: Chikungunya virus; experiment: Antiviral activity against CHIKV 122508 infected in human HeLa CCL2 cells assessed as inhibition of viral replication at MOI of 1 at 1 uM incubated for 24 hpi by viral plaque assay; format: functional; settings: time 24 hrs
# [15] = system: Chikungunya virus; experiment: Antiviral activity against CHIKV 122508 infected in human HeLa CCL2 cells assessed as inhibition of viral replication at MOI of 1 incubated for 24 hpi by immunofluorescence assay; format: functional, organism-based; settings: Chikungunya virus, 122508, HeLa CCL2
smiles,measurement,setting,value
C=C1CC[C@H]2C(C)(C)CCC[C@]2(C)[C@H]1C/C=C1/C(=O)Nc2ccc(F)cc21,Activity,[1],1.5
same,selectivity ratio,[2],94
same,CC50,[3],5.6 µM
same,EC50,[4],0.06 µM
C=C1CC[C@H]2C(C)(C)CCC[C@]2(C)[C@H]1C/C=C1\C(=O)Nc2ccc(C)cc21,Activity,[1],0.9
same,selectivity ratio,[2],461
same,CC50,[3],13.8 µM
same,EC50,[4],0.03 µM
C=C1CC[C@H]2C(C)(C)CCC[C@]2(C)[C@H]1C/C=C1/C(=O)Nc2cc(C)ccc21,Activity,[1],1.2
same,selectivity ratio,[2],12700
same,CC50,[3],25.4 µM
same,EC50,[4],0.002 µM
C=C1CC[C@H]2C(C)(C)CCC[C@]2(C)[C@H]1C/C=C1/C(=O)Nc2c(Cl)cccc21,Activity,[5],5.2
same,CC50,[6],> 100 µM
same,selectivity ratio,[2],83
same,Activity,[7],3.9
same,selectivity ratio,[8],714
same,Activity,[9],Active
same,Activity,[10],Active
same,CC50,[3],130 µM
same,Activity,[11],4.6
same,EC50,[4],1.55 µM
same,EC50,[12],0.14 µM
C=C1CC[C@H]2C(C)(C)CCC[C@]2(C)[C@H]1C/C=C1\C(=O)Nc2ncccc21,selectivity ratio,[2],870
same,CC50,[3],34.8 µM
same,Activity,[13],1.7
same,EC50,[4],0.04 µM
C=C1CC[C@H]2C(C)(C)CCC[C@]2(C)[C@H]1C/C=C1/C(=O)Nc2c(F)cccc21,selectivity ratio,[2],4070
same,CC50,[3],81.4 µM
same,Activity,[13],2.3
same,EC50,[4],0.02 µM
C=C1[C@H](O)C[C@H]2C(C)(C)CCC[C@]2(C)[C@H]1C/C=C1/C(=O)Nc2c(Cl)cccc21,selectivity ratio,[2],6100
same,CC50,[3],6.1 µM
same,Activity,[14],1.1
same,EC50,[4],0.001 µM
C=C1CC[C@@H]2[C@](C)(CO)[C@H](O)CC[C@@]2(C)[C@@H]1C/C=C1/C(=O)OC[C@H]1O [ANDROGRAPHOLIDE],EC50,[15],77 µM
C=C1CC[C@@H]2[C@](C)(CO)[C@H](O)CC[C@@]2(C)[C@@H]1C/C=C1/C(=O)Nc2ccccc21,selectivity ratio,[2],14
same,EC50,[15],5.5 µM
same,CC50,[3],76.9 µM
same,EC50,[4],5.52 µM
